Measurements published in patent US8772321B2, “Heteroannelated anthraquinone derivatives for inhibiting cancers” (National Defense Medical Center, priority 2008, dated 2014).
Where a SMILES comes first, the peptide text is derived from it. The star is where a group is joined. Cbz = O=C(OCc1ccccc1)*

What was measured:
Type in all cases: cell-based, human
HeLa cells [1] = test: DNA damage, immunoblot of γ-phosphorylation of histone H2A.X; details: various doses, 12 hour
Method: The anthracyclin antibiotic agent doxorubicin (DXR) is an active cytotoxic reagent with a wide range of clinical indications, including treatment of solid tumors in the ovary, breast, and gastrointestinal systems, as well as treatment of liquid tumors such as leukemia. […] Specifically, HeLa cells were treated with NSC745885 at various doses for 12 hour. The phosphorylation of γ-H2A.X was subsequently detected by the immunoblot.
(§1) Cell lysates were prepared in lysis buffer (100 mM Tris-HCl pH 8.0, 150 mM NaCl, 0.1% SDS, and 1% Triton 100) at 4° C., separated by sodium dodecyl sulfate-polyacrylamide gel electrophoresis (SDS-PAGE), and then transferred onto a polyvinylidine difluoride membrane (Millipore, USA). Proteins were detected using antibodies against alpha actinin (ACTN), proliferating cell nuclear antigen (PCNA), p53, p21, cyclin B1, and cyclin D1 (Santa Cruz Biotechnology, USA), YH2A.X (EP854(2)Y, Epitomics, USA), cleaved caspase 3, cleaved poly(ADP-ribose) polymerase (PARP) and LC3B-II (Cell signaling, USA).

HeLa cells [2] = test: Cell cycle profile by FACS
Text: Cell cycle arrest is an important damage surveillance mechanism. […] Treating the cells with NSC745885 caused 47-58% of cells to arrest in sub-G1, which is indicative of cell death. This effect was dose- and time-dependent (FIG. 3, Panel B).

HeLa cells [3] = test: Apoptosis: cleaved PARP and caspase 3 immunoblot, DNA fragmentation gel; details: various doses, 16 hours
Method: It is well noted that DXR can induce cardiomyocyte death by apoptosis and necrosis. DXR is also involved in other types of cellular processes, such as autophagy and senescence/aging. To investigate induction of apoptosis caused by NSC745885, we adopted DXR as a positive control and examined the levels of cleaved PARP and caspase 3 as apoptotic indicators using immunoblot (FIG. 4A), as well as DNA fragmentation using agarose gel electrophoresis (FIG. 4B). HeLa cells were treated with either DXR or NSC745885 at various doses for 16 hours. Subsequently, the total cellular protein was extracted and immunoblotted with antibodies against the cleaved types of PARP and caspase 3. Additionally, genomic DNA was isolated and analyzed by 2% agarose gel electrophoresis followed by ethidium bromide staining. The results (FIG. 4A and FIG. 4B) are representative of three independent experiments. […] Treatment with NSC745885 decreased protein stability, an effect that appeared to be selective, and was confirmed in other immunoblot analyses (shown in FIG. 6A, lanes 1 and 6).
as §1

HeLa cells [4] = test: Autophagy: LC3B-II immunoblot; details: 12 hours
Method: as §1
Altered intracellular localization of LC3B (LC3B-I) and increased electrophoretic mobility of LC3B (LC3B-II) are correlated with recruitment to autophagic membranes and can be used as molecular markers for autophagic activation.
In FIG. 5A, HeLa cells were treated with the indicated concentrations of DXR, NSC745885 for 12 hours, and then cell lysates were analyzed by immunoblot using antibodies directed against LC3. The results are representative of three independent experiments.

HeLa cells [5] = test: Autophagosome formation, GFP-LC3 fluorescence microscopy; details: HeLa cells transfected with GFP-LC3; 2.5 μM NSC745885, 12 hours
Method: In FIG. 5B, HeLa cells were transfected with 0.25 μg of an expression vector for GFP-LC3 for 24 hours and then treated with 2.5 μM NSC745885 for 12 hours. […] Vehicle (DMSO) and spermidine (Spd) were used as a negative and positive control, respectively.
(§2) In FIGS. 5C and 5D, HeLa cells were incubated with 2.5 μM NSC745885 for 24 hours. After 48 hours, cells were subjected to SA-β-galactosidase staining (FIG. 5C) and approximately 100 stained cells were quantified (*P<0.05; ** P<0.01; *** P<0.005). NSC745885 induced senescence at a rate of 25% (P=0.0085 compared to DMSO). (FIG. 5D) LC3B-I fragments were observed when the cells were exposed to the drug for longer period of time (FIG. 5A, panel labeled as LE). […] We also treated Hela cells with the autophagy inducer spermidine (Spd) and vehicle (DMSO), which act as the positive and the negative control, respectively.

HeLa cells [6] = test: Senescence-associated β-galactosidase staining; details: DXR at low concentrations
Method: Cultured cells were washed in PBS (pH 7.4), incubated in a solution of 2% formaldehyde/0.2% glutaraldehyde, and then incubated overnight at 37° C. in freshly prepared staining solution consisting of 1 mg/mL X-gal (5-bromo-4-chloro-3-indolyl-β-D-galactoside), 5 mM K3Fe(CN)6, 5 mM K4Fe(CN)6, 150 mM NaCl and 2 mM MgCl2 in 40 mM citric acid/sodium phosphate, pH 6.0. Following this incubation, cells were washed with water and examined by light microscopy at 200× magnification.
as §2

[7] = tested on: p53-dependent reporter (pG13-LUC); test: p53-dependent reporter (pG13-LUC) luciferase assay; details: HeLa cells co-transfected with Zac1 expression vector
Method: (§3) HeLa and HeLa/shp53 cells were grown in DMEM supplemented with 10% charcoal/dextran-treated fetal bovine serum. Cells in a 24-well plate were transfected with jetPEI (PolyPlus-transfection, France) according to the manufacturer's protocol; total DNA was adjusted to 1.0 μg by the addition of empty vector DNA. Luciferase assays were performed using the Promega Luciferase Assay kit, and the measurement was expressed numerically as relative light units (RLU). Luciferase activities were presented as means and standard deviation of two transfected sets. […] Instead, the reproducibility of the observed effects on luciferase activity was determined in multiple independent transfection experiments.
HeLa cells infected with human papillomavirus and expressing the E6 oncoprotein, which maintains endogenous wild-type p53 at a very low concentration, are used as a model system for studying human cervical tumorigenesis. In order for us to confirm the effects of DXR and NSC745885 on endogenous p53, HeLa cells were transiently transfected with a p53-dependent reporter (pG13-LUC) (FIG. 7A) and a p21 promoter reporter (p21-LUC) (FIG. 7B), along with an expression vector for a well-known p53 activator (Zac1).

HeLa/shp53 cells = test: MTT cell viability assay, HeLa vs HeLa/shp53; details: endogenous p53 silenced; 24, 48, 72 hours
Method: as §3
To understand the functional role that endogenous p53 plays in the cytotoxic effects of DXR and NSC745885, we measured cell viability of HeLa or HeLa/shp53 cells using MTT cell viability assay. In this assay, endogenous p53 is silenced, both in the presence or absence of the drugs (FIG. 8). […]

p53 and p21 = p53 and p21 protein expression, immunoblot; details: HeLa cells, MG132 1 uM or 10 uM added 3 hours before harvesting; only at lower concentrations of NSC745885
Method: as §1
Cell cycle regulatory protein p21 is one of p53's targets. […] In this experiment, HeLa cells were treated with the indicated concentrations of DXR or NSC745885 for 12 hours and then assessed by immunoblot (FIG. 6A) and RT-PCR (FIG. 6B).
In FIG. 6C, HeLa cells were treated with the indicated concentrations of NSC745885 for 12 hours; proteasome inhibitor MG132 (1 uM or 10 uM) was added 3 hours before harvesting. Cell protein extracts were tested with anti-p53 and anti-p21 antibodies. The results are representative of two independent experiments.

Compound | DNA damage (phosphorylation of γ-H2A.X, immunoblot) (HeLa cells [1]) | cell cycle arrest (HeLa cells [2]) | induction of apoptosis (cleaved PARP, caspase 3, DNA fragmentation) (HeLa cells [3]) | LC3B-II fragment formation (autophagic activation) (HeLa cells [4]) | autophagosome formation (LC3 aggregation, GFP-LC3) (HeLa cells [5]) | senescence rate (SA-β-galactosidase staining) (HeLa cells [6]) | Zac1-induced p53-dependent reporter activity [7] | sensitivity (cell viability, MTT) in HeLa/shp53 versus HeLa cells (HeLa/shp53 cells) | effect of MG132 on p53 and p21 degradation by NSC745885 (p53 and p21)
COc1cccc2c1C(=O)c1c(O)c3c(c(O)c1C2=O)C[C@@](O)(C(=O)CO)C[C@@H]3O[C@H]1C[C@H](N)[C@H](O)[C@H](C)O1 [DXR, doxorubicin, reference compound] | strongly induced DNA damage | cell cycle arrest in S phase | strongly induced | LC3B-II fragment formation | autophagosome formation | 73% | inhibited Zac1-induced activity | dependent on endogenous p53 for cell killing | –
CC(C)C[C@@H](C=O)NC(=O)[C@H](CC(C)C)NC(=O)[C@H](CC(C)C)NC(=O)OCc1ccccc1 [MG132, reference compound] (Cbz-Leu-Leu-Leu-aldehyde) | – | – | – | – | – | – | – | – | attenuate the degradation of p53 and p21
